Source: patent publication US20100075907A1, “NEUROMEDIN U RECEPTOR AGONISTS AND USES THEREOF” (priority 2006, published 2010)
Non-standard residues stand in square brackets, D forms with d. Residues, ends and D or L forms follow the SMILES beside them. No end group written: not given here. *: point of attachment. Succinimide(1-Et,3-yl) = CCN1C(=O)CC(*)C1=O; hArg = N=C(N)NCCCC[C@H](N)C(=O)O; dNle = CCCC[C@@H](N)C(=O)O

Biological target: T1, hNMUR1 (Homo sapiens, UniProt Q9HB89)
T1 sequence (Q9HB89 1-426): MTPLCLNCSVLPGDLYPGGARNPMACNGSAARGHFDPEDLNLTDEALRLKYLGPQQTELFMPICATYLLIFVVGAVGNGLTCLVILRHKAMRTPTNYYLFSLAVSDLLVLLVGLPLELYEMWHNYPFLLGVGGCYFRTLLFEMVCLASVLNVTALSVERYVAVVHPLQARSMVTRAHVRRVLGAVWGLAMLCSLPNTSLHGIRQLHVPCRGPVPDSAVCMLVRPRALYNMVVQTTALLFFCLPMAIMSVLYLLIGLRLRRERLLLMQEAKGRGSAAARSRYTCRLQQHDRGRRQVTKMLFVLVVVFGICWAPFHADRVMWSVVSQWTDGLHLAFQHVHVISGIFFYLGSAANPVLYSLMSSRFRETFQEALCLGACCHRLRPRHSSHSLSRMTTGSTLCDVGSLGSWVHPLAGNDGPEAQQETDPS
Assay: 125I-hNMU-25 binding assay, human NMUR1 membranes
Parameters: expressed in transfected cells; host or cells: HEK-293 FLP-In cells (pcDNA5); HEK-293/aeq17 lines (pIRES-puro) were also made; % inhibition of NMU-25 binding / % Activity: concentration or dose not given beside the values
Protocol: Confluent cell monolayers expressing NMU receptors (the HEK cells described above) were harvested with phosphate buffered saline, collected by centrifugation, and resuspended in membrane buffer (50 mM TrisCl pH 7.4, 5 mM MgCl2, 1× Protease Inhibitor Cocktail, 10 μM phosphoramidon). After the cell pellet was homogenized, the solution was centrifuged at 18,000 rpm for 20 minutes at 4° C. The pellet was resuspended in membrane buffer to yield a final concentration of 0.5-5 μg/μL of membrane and stored at −80° C.
Experiments were performed in assay buffer (25 mM TrisCl, pH 7.4, 10 mM MgCl2, 2 mM EDTA, 1× Protease Inhibitor Cocktail, 100 μg/mL Bacitricin, 10 μM phosphoramidon) in 200 μL volumes in a 96-well format using 2-5 μg of membrane and 0.1 nM ^125I-hNMU-25 (about 12,000 cpm/well). For non-specific binding, 1 μM hNMU-25 was added. About 5 μL of peptides were added to measure antagonist activity, and the entire reaction was incubated at room temperature with shaking for 80 minutes. The reaction was terminated by rapid filtration through 0.3% poly-ethylenimine presoaked Millipore 96-well filter plates and washed with ice-cold buffer (5 mM TrisCl pH 7.4, 10 mM MgCl2, 2.5 mM EDTA, 0.04% Triton X-100). Plates were air-dried overnight at room temperature and recovered radioactivity was determined by standard scintillation counting. IC50 values were determined using GraphPad Prism software.
Concentration-response curves and radioligand-binding data were fitted using Prism (GraphPad Software). Results are summarized below in Tables 8 and 9.

[1] = Table 8, HEK-hR1, second (binding) column pair

| Compound | % Activity (Table 8, HEK-hR1, binding) [%] | % Activity (Table 9, HEK-hR1, binding) [%] | IC50 (Table 9, HEK-hR1, binding) [µM] | other results |
| --- | --- | --- | --- | --- |
| CCN1C(=O)CC(SC[C@H](NC(C)=O)C(=O)N[C@@H](Cc2ccccc2)C(=O)N[C@@H](CCCNC(=N)N)C(=O)N[C@H](C(=O)N[C@@H](CC(=O)O)C(=O)N[C@@H](CCC(=O)O)C(=O)N[C@@H](CCC(=O)O)C(=O)N[C@@H](Cc2ccccc2)C(=O)N[C@@H](CCC(N)=O)C(=O)N[C@@H](CO)C(=O)N2CCC[C@H]2C(=O)N[C@@H](Cc2ccccc2)C(=O)N[C@@H](C)C(=O)N[C@@H](CO)C(=O)N[C@@H](CCC(N)=O)C(=O)N[C@@H](CO)C(=O)N[C@@H](CCCNC(=N)N)C(=O)NCC(=O)N[C@@H](Cc2ccc(O)cc2)C(=O)N[C@@H](Cc2ccccc2)C(=O)N[C@H](C)C(=O)N[C@@H](Cc2c[nH]c3ccccc23)C(=O)N[C@@H](CCCNC(=N)N)C(=O)N2CCC[C@H]2C(=O)N[C@@H](CCCNC(=N)N)C(=O)N[C@@H](CC(N)=O)C(N)=O)C(C)C)C1=O (stereo partly shown) [NMU13] (Ac-C(Succinimide(1-Et,3-yl))FRVDEEFQSPFASQSRGYF[dA]WRPRN-NH2) | – | – | – | % inhibition of NMU-25 binding (human R1): 100% |
| H-YFGWRPRN-NH2 [Agonist C] | 100 | – | – | – |
| C[C@@H](NC(=O)[C@H](Cc1ccccc1)NC(=O)[C@@H](N)Cc1ccc(O)cc1)C(=O)N[C@@H](Cc1c[nH]c2ccccc12)C(=O)N[C@@H](CCCNC(=N)N)C(=O)N1CCC[C@H]1C(=O)N[C@@H](CCCNC(=N)N)C(=O)N[C@@H](CC(N)=O)C(N)=O [Agonist D, YF-(D-A)-WRPRN-CONH2] (H-YF[dA]WRPRN-NH2; N-terminus assumed) | 100 | – | – | – |
| CC(C)C[C@H](NC(=O)[C@H](Cc1c[nH]c2ccccc12)NC(=O)[C@@H](N)Cc1ccccc1)C(=O)N[C@@H](Cc1ccccc1)C(=O)N[C@@H](CCCNC(=N)N)C(=O)N1CCC[C@H]1C(=O)N[C@@H](CCCCNC(=N)N)C(=O)N[C@@H](CC(N)=O)C(N)=O [Agonist I, FWLFRP-(Harg)-N-CONH2] (H-FWLFRP[hArg]N-NH2) | – | 23 | > 1 | – |
| CC(C)C[C@H](NC(=O)[C@H](Cc1c[nH]c2ccccc12)NC(=O)[C@H](Cc1ccccc1)NC(=O)CNC(=O)[C@H](CCCNC(=N)N)NC(=O)[C@H](CO)NC(=O)[C@H](CCC(N)=O)NC(=O)[C@H](CO)NC(=O)[C@H](C)NC(=O)[C@H](Cc1ccccc1)NC(=O)[C@@H]1CCCN1C(=O)[C@H](CO)NC(=O)[C@H](CCC(N)=O)NC(=O)[C@H](Cc1ccccc1)NC(=O)[C@H](CCC(=O)O)NC(=O)[C@H](CCC(=O)O)NC(=O)[C@H](CC(=O)O)NC(=O)[C@@H](NC(=O)[C@H](CCCNC(=N)N)NC(=O)[C@@H](N)Cc1ccccc1)C(C)C)C(=O)N[C@@H](Cc1ccccc1)C(=O)N[C@@H](CCCNC(=N)N)C(=O)N1CCC[C@H]1C(=O)N[C@@H](CCCCNC(=N)N)C(=O)N[C@@H](CC(N)=O)C(N)=O [Agonist O] (H-FRVDEEFQSPFASQSRGFWLFRP[hArg]N-NH2; N-terminus assumed) | – | 64 | 0.4 | – |
| CC(=O)N[C@@H](Cc1ccccc1)C(=O)N[C@H](CC(C)C)C(=O)N[C@@H](Cc1c[nH]c2ccccc12)C(=O)N[C@@H](CCCNC(=N)N)C(=O)N1CCC[C@H]1C(=O)N[C@@H](CCCNC(=N)N)C(=O)N[C@@H](CC(N)=O)C(N)=O [Agonist E, Ac-F-(D-L)-WRPRN-CONH2] (Ac-F[dL]WRPRN-NH2) | 93 | – | – | – |
| CC(C)C[C@H](NC(=O)[C@H](Cc1c[nH]c2ccccc12)NC(=O)[C@@H](N)Cc1ccccc1)C(=O)N[C@@H](Cc1ccccc1)C(=O)N[C@@H](CCCNC(=N)N)C(=O)N[C@@H](C)C(=O)N[C@@H](CCCCNC(=N)N)C(=O)N[C@@H](CC(N)=O)C(N)=O [Agonist J, FWLFRA-(Harg)-N-CONH2] (H-FWLFRA[hArg]N-NH2) | – | 34 | > 1 | – |
| CCCC[C@@H](NC(=O)[C@H](CCCNC(=N)N)NC(=O)[C@H](C)NC(=O)[C@H](CCCNC(=N)N)NC(=O)[C@H](Cc1ccccc1)NC(=O)[C@H](CC(C)C)NC(=O)[C@H](Cc1ccccc1)NC(=O)[C@@H](N)Cc1c[nH]c2ccccc12)C(N)=O [Agonist K, WFLFRAR-(D-Nle)-CONH2] (H-WFLFRAR[dNle]-NH2) | – | 25 | > 1 | – |
| H-FRVDEEFQSPFASQSRGYFWRPRN-NH2 [Agonist G] | 97 | – | – | – |
| CC(C)C[C@H](NC(=O)[C@H](Cc1c[nH]c2ccccc12)NC(=O)[C@H](Cc1ccccc1)NC(=O)CNC(=O)[C@H](CCCNC(=N)N)NC(=O)[C@H](CO)NC(=O)[C@H](CCC(N)=O)NC(=O)[C@H](CO)NC(=O)[C@H](C)NC(=O)[C@H](Cc1ccccc1)NC(=O)[C@@H]1CCCN1C(=O)[C@H](CO)NC(=O)[C@H](CCC(N)=O)NC(=O)[C@H](Cc1ccccc1)NC(=O)[C@H](CCC(=O)O)NC(=O)[C@H](CCC(=O)O)NC(=O)[C@H](CC(=O)O)NC(=O)[C@@H](NC(=O)[C@H](CCCNC(=N)N)NC(=O)[C@@H](N)Cc1ccccc1)C(C)C)C(=O)N[C@@H](Cc1ccccc1)C(=O)N[C@@H](CCCNC(=N)N)C(=O)N[C@@H](C)C(=O)N[C@@H](CCCCNC(=N)N)C(=O)N[C@@H](CC(N)=O)C(N)=O [Agonist P] (H-FRVDEEFQSPFASQSRGFWLFRA[hArg]N-NH2; N-terminus assumed) | – | 1 | > 1 | – |
| YFWRPRN-NH2 [Agonist A, YFWRPRN-CONH2] | 94 | – | – | IC50 [1]: 0.01 µM |
| CCCC[C@@H](NC(=O)[C@H](CCCNC(=N)N)NC(=O)[C@@H]1CCCN1C(=O)[C@H](CCCNC(=N)N)NC(=O)[C@H](Cc1ccccc1)NC(=O)[C@H](CC(C)C)NC(=O)[C@H](Cc1c[nH]c2ccccc12)NC(=O)[C@H](Cc1ccccc1)NC(=O)CNC(=O)[C@H](CCCNC(=N)N)NC(=O)[C@H](CO)NC(=O)[C@H](CCC(N)=O)NC(=O)[C@H](CO)NC(=O)[C@H](C)NC(=O)[C@H](Cc1ccccc1)NC(=O)[C@@H]1CCCN1C(=O)[C@H](CO)NC(=O)[C@H](CCC(N)=O)NC(=O)[C@H](Cc1ccccc1)NC(=O)[C@H](CCC(=O)O)NC(=O)[C@H](CCC(=O)O)NC(=O)[C@H](CC(=O)O)NC(=O)[C@@H](NC(=O)[C@H](CCCNC(=N)N)NC(=O)[C@@H](N)Cc1ccccc1)C(C)C)C(N)=O [Agonist Q] (H-FRVDEEFQSPFASQSRGFWLFRPR[dNle]-NH2) | – | 16 | > 1 | – |
| WALFRARN-NH2 [Agonist M] | – | 0 | > 1 | – |
| CC(C)C[C@@H](NC(=O)[C@H](Cc1ccccc1)NC(=O)[C@H](Cc1ccc(O)cc1)NC(=O)CNC(=O)[C@H](CCCNC(=N)N)NC(=O)[C@H](CO)NC(=O)[C@H](CCC(N)=O)NC(=O)[C@H](CO)NC(=O)[C@H](C)NC(=O)[C@H](Cc1ccccc1)NC(=O)[C@@H]1CCCN1C(=O)[C@H](CO)NC(=O)[C@H](CCC(N)=O)NC(=O)[C@H](Cc1ccccc1)NC(=O)[C@H](CCC(=O)O)NC(=O)[C@H](CCC(=O)O)NC(=O)[C@H](CC(=O)O)NC(=O)[C@@H](NC(=O)[C@H](CCCNC(=N)N)NC(=O)[C@@H](N)Cc1ccccc1)C(C)C)C(=O)N[C@@H](Cc1c[nH]c2ccccc12)C(=O)N[C@@H](CCCNC(=N)N)C(=O)N1CCC[C@H]1C(=O)N[C@@H](CCCNC(=N)N)C(=O)N[C@@H](CC(N)=O)C(N)=O [Agonist H] (H-FRVDEEFQSPFASQSRGYF[dL]WRPRN-NH2; N-terminus assumed) | 93 | – | – | IC50 (binding, human R1): 0.0011 µM; % inhibition of NMU-25 binding (human R1): 93% |
| CC(C)C[C@@H](NC(=O)[C@H](Cc1ccccc1)NC(=O)[C@@H](N)Cc1ccc(O)cc1)C(=O)N[C@@H](Cc1c[nH]c2ccccc12)C(=O)N[C@@H](CCCNC(=N)N)C(=O)N1CCC[C@H]1C(=O)N[C@@H](CCCNC(=N)N)C(=O)N[C@@H](CC(N)=O)C(N)=O [Agonist B, YF-(D-L)-WRPRN-CONH2] (H-YF[dL]WRPRN-NH2) | 96 | – | – | – |
| H-FRVDEEFQSPFASQSRGYFLFRPRN-NH2 [hNMU-25, reference compound] | – | 100 | – | IC50 (binding, human R1): 0.00014 µM |
| CC(C)C[C@H](NC(=O)[C@H](Cc1ccccc1)NC(=O)[C@@H](N)Cc1ccc(O)cc1)C(=O)N[C@@H](Cc1ccccc1)C(=O)N[C@@H](CCCNC(=N)N)C(=O)N1CCC[C@H]1C(=O)N[C@@H](CCCNC(=N)N)C(=O)N[C@@H](CC(N)=O)C(N)=O [NMU-8, reference compound] | – | 100 | – | – |
| H-FWLFRARN-NH2 [Agonist L] | – | 0 | > 1 | – |
| Ac-FFRPRN-NH2 [Agonist F, Ac-FFRPRN-CONH2] | 30 | – | – | IC50 [1]: > 1 µM |
| FALFRPRN-NH2 [Agonist N] | – | 38.4 | > 1 | – |
